Columns and labels:
Brd4 bromodomain 1 = target: T1, Brd4 bromodomain 1 (Homo sapiens, UniProt O60885); test: Inhibition of binding of tetra-acetylated histone H4 to Brd4 bromodomain 1 (TR-FRET); conditions: His-tagged Brd4 bromodomain 1 200 nM, tetra-acetylated histone H4 peptide 25-50 nM, 2 hours room temperature
T1 construct: made in house; host or cells: E. coli BL21(DE3)
Procedure, shortened: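 His-tagged Brd4 BD1 was expressed in E. coli and purified by Ni affinity and size exclusion. TR-FRET competition with tetra-acetylated H4 was run in 30 mM HEPES pH 7.4, 30 mM NaCl, 0.3 mM CHAPS, 20 mM phosphate pH 7.0, 320 mM KF and 0.08% BSA, with 0.2% DMSO.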

c-myc = test: Inhibition of c-myc expression in MV4-11 cells (real-time PCR of mRNA); assay type: cell-based, Human; design: key: Active: Compounds with an IC50 value less than 30 uM were deemed to be active; conditions: 3 hours at 37° C.
Procedure: MV4-11 cells (2.5×10^4 cells) were plated in 96 well U-bottom plates with test compound or DMSO (0.1%), and incubated for 3 hours at 37° C. Cells were then harvested by centrifugation, lysed, and mRNA was isolated using the mRNA catcher plus kit (Invitrogen). Reverse transcription of the mRNA and duplex amplification of the c-myc and cyclophilin cDNAs was performed using the RNA Ultrasense kit (Invitrogen) and a ViiA7 real-time PCR machine (Applied Biosystems). IC50 values were determined from a dose response curve.

Human AML MV-4-11 cells = test: Inhibition of cell proliferation in human AML MV-4-11 cells (CellTiter Aqueous One); assay type: cell-based; design: key: Active: Compounds with an IC50 value less than 30 μM were deemed to be active; conditions: 72 hours, 30 μM to 0.2 μM
Procedure: MV4-11 cells: 96-well plates were seeded with 5×10^4 cells per well of exponentially growing human AML MV-4-11 (CRL-9591) cells and immediately treated with two-fold dilutions of test compounds, ranging from 30 μM to 0.2 μM. Triplicate wells were used for each concentration, as well as a media only and three DMSO control wells. The cells and compounds were incubated at 37° C., 5% CO2 for 72 hours before adding 20 μL of the CellTiter Aqueous One Solution (Promega) to each well and incubated at 37° C., 5% CO2 for an additional 3-4 hours. The absorbance was taken at 490 nm in a spectrophotometer and the percentage of proliferation relative to DMSO-treated cells was calculated after correction from the blank well. IC50 were calculated using the GraphPad Prism software.

IL-6 = conditions: cited from earlier work
[1] = system: NUT (nuclear protein in testis) midline carcinoma (NMC); conditions: Filippakopoulos et al. (2010); cited from earlier work
multiple myeloma = conditions: associated with cell cycle arrest and cellular senescence; Delmore et al. (2011); cited from earlier work
[2] = murine model; Lamotte et al. (2012); cited from earlier work

COc1cc(OC)c2c(=O)[nH]c(-c3ccc(N4CCN(C(C)C)CC4)cc3)nc2c1 [Example 10, 2-(4-(4-Isopropylpiperazin-1-yl)phenyl)-5,7-dimethoxyquinazolin-4(3H)-one]
FRET activity (<50 uM) (Brd4 bromodomain 1): Active | c-myc activity (<30 uM) (c-myc): Active | cell proliferation activity (<30 uM) (Human AML MV-4-11 cells): Inactive

CCNC(=O)C[C@@H]1N=C(c2ccc(Cl)cc2)c2cc(OC)ccc2-n2c(C)nnc21 [I-BET]
IL-6 expression in vivo (IL-6): decrease IL-6 expression

Cc1sc2c(c1C)C(c1ccc(Cl)cc1)=N[C@@H](CC(=O)OC(C)(C)C)c1nnc(C)n1-2 [JQ1]
antitumor activity in murine xenograft models of NMC [1]: potent antitumor activity | antiproliferation in multiple myeloma (multiple myeloma): potent antiproliferator

COc1cc(OC)c2c(=O)[nH]c(-c3ccc(OCCN4CCCC4)c(C)c3)nc2c1 [Example 73, 5,7-Dimethoxy-2-(3-methyl-4-(2-(pyrrolidin-1-yl)ethoxy)phenyl)quinazolin-4(3H)-one]
FRET activity (<50 uM) (Brd4 bromodomain 1): Active | c-myc activity (<30 uM) (c-myc): Active | melting point: 230 to 231 °C

COc1cc(OCCN2CCCC2)cc(-c2nc3cc(OC)cc(OC)c3c(=O)[nH]2)c1 [Example 114, 5,7-Dimethoxy-2-(3-methoxy-5-(2-(pyrrolidin-1-yl)ethoxy)phenyl)quinazolin-4(3H)-one]
FRET activity (<50 uM) (Brd4 bromodomain 1): Active | c-myc activity (<30 uM) (c-myc): Active | cell proliferation activity (<30 uM) (Human AML MV-4-11 cells): Active | melting point: 159 to 160 °C

COc1cc2c(cc1-c1c(C)noc1C)ncc1[nH]c(=O)n([C@H](C)c3ccccn3)c12 [I-BET151]
IL-6 expression in vivo (IL-6): decrease IL-6 expression | bacterial-induced inflammation and sepsis [2]: suppress bacterial-induced inflammation and sepsis

COc1cc(OCCNC(C)=O)cc(-c2nc3cc(OC)cc(OC)c3c(=O)[nH]2)c1 [Example 115, N-(2-(3-(5,7-dimethoxy-4-oxo-3,4-dihydroquinazolin-2-yl)-5-methoxyphenoxy)ethyl)acetamide]
FRET activity (<50 uM) (Brd4 bromodomain 1): Inactive | c-myc activity (<30 uM) (c-myc): Inactive | cell proliferation activity (<30 uM) (Human AML MV-4-11 cells): Active | melting point: 264 to 265 °C

COc1cc(OC)c2c(=O)[nH]c(-c3ccc(OCCN4CCCC4)cc3)nc2c1 [Example 76, 5,7-Dimethoxy-2-(4-(2-(pyrrolidin-1-yl)ethoxy)phenyl)quinazolin-4(3H)-one]
FRET activity (<50 uM) (Brd4 bromodomain 1): Active | melting point: 226 to 227 °C

COc1cc(OC)c2c(=O)[nH]c(-c3cc(C)c(OCCN4CCC4)c(C)c3)nc2c1 [Example 86, 2-(4-(2-(Azetidin-1-yl)ethoxy)-3,5-dimethylphenyl)-5,7-dimethoxyquinazolin-4(3H)-one]
FRET activity (<50 uM) (Brd4 bromodomain 1): Active | melting point: 204 to 205 °C

COCCOc1cc(OCCOC)c2c(=O)[nH]c(-c3cc(C)nc(C)c3)nc2c1 [Example 101, 2-(2,6-Dimethylpyridin-4-yl)-5,7-bis(2-methoxyethoxy)quinazolin-4(3H)-one]
FRET activity (<50 uM) (Brd4 bromodomain 1): Active | melting point: 149.8 to 151.4 °C

COc1cc(OC)c2c(=O)[nH]c(-c3cc(C)c(CCCN4CCCC4)c(C)c3)nc2c1 [Example 77, 2-(3,5-Dimethyl-4-(3-(pyrrolidin-1-yl)propyl)phenyl)-5,7-dimethoxyquinazolin-4(3H)-one]
FRET activity (<50 uM) (Brd4 bromodomain 1): Active | melting point: 194 to 196 °C

COc1cc(OC)c2c(=O)[nH]c(-c3cc(C)c(OCCN4C(=O)CN(C(C)C)C4=O)c(C)c3)nc2c1 [Example 74, 3-(2-(4-(5,7-Dimethoxy-4-oxo-3,4-dihydroquinazolin-2-yl)-2,6-dimethylphenoxy)ethyl)-1-isopropylimidazolidine-2,4-dione]
FRET activity (<50 uM) (Brd4 bromodomain 1): Active | melting point: 219 to 221 °C

COc1cc(OCCOc2ccccc2)c2c(=O)[nH]c(-c3cc(C)nc(C)c3)nc2c1 [Example 104, 2-(2,6-Dimethylpyridin-4-yl)-7-methoxy-5-(2-phenoxyethoxy)quinazolin-4(3H)-one]
FRET activity (<50 uM) (Brd4 bromodomain 1): Active | melting point: 172.3 to 173.2 °C

Cc1cc(-c2nc3cc(Cl)cc(Cl)c3c(=O)[nH]2)cc(C)c1OCCN1CCCC1 [Example 67, 5,7-Dichloro-2-(3,5-dimethyl-4-(2-(pyrrolidin-1-yl)ethoxy)phenyl)quinazolin-4(3H)-one]
FRET activity (<50 uM) (Brd4 bromodomain 1): Inactive | melting point: 209 to 210 °C

COc1cc(OCCOCc2ccccc2)cc2nc(-c3ccncc3)[nH]c(=O)c12 [Example 98, 7-(2-(Benzyloxy)ethoxy)-5-methoxy-2-(pyridin-4-yl)quinazolin-4(3H)-one]
FRET activity (<50 uM) (Brd4 bromodomain 1): Inactive | melting point: 228.2 to 229.9 °C

COc1cc(OC)c2c(=O)[nH]c(-c3cc(C)c(OCCN4CC(NC(C)=O)C4)c(C)c3)nc2c1 [Example 87, N-(1-(2-(4-(5,7-Dimethoxy-4-oxo-3,4-dihydroquinazolin-2-yl)-2,6-dimethylphenoxy)ethyl)azetidin-3-yl)acetamide]
FRET activity (<50 uM) (Brd4 bromodomain 1): Active | melting point: 111.8 to 113.6 °C

COc1cc(OC)c2c(=O)[nH]c(-c3cc(C)cc(OCCO)c3)nc2c1 [Example 113, 2-(3-(2-Hydroxyethoxy)-5-methylphenyl)-5,7-dimethoxyquinazolin-4(3H)-one]
FRET activity (<50 uM) (Brd4 bromodomain 1): Active | melting point: 106.9 to 109.1 °C

From patent US20130281399A1, “TREATMENT OF DISEASES BY EPIGENETIC REGULATION” (RVX Therapeutics Inc., priority 2012, published 2013)
